Values quoted from earlier work in patent publication US12351592B2 (UNIVERSIDAD SANTIAGO DE CALI, priority 2019, dated 2025).

- distribution volume (Vd) (in vivo): 654±358 I
- access to erythrocytes (slow access): 5 % of the blood dose
Structure (SMILES): CN(C)C(=N)N=C(N)N [Metformin]
